Here are results for 1 compound from patent US20140011889A1, “Resveratrol-Containing Compositions and Methods of Use for Cardiac-Related Diseases” (Resveratrol Partners, LLC, priority 2010, published 2014).

Data set [1] concerns isolated perfused rat hearts. As to the kind of experiment: Myocardial infarct size, TTC staining (Example 6). It is filed as in vivo, Sprague-Dawley rats. As for the experimental part:
Infarct size estimation. Infarct size was measured using the triphenyl tetrazolium chloride (TTC) staining method. Malik et al. […] After two hours of reperfusion, 40 ml of 1% (w/v) solution of TTC in phosphate buffer was infused into the aortic cannula, and the heart samples were stored at −70° C. for subsequent analysis. Sections (0.8 mm) of frozen heart were fixed in 2% paraformaldehyde, placed between two cover slips and digitally imaged using a Microtek ScanMaker 600z (Microtek, USA). To quantitate the areas of infarct in pixels, a standard National Institutes of Health image program was used. The infarct size was quantified and expressed in pixels. At the end of each experiment the hearts were either subjected to TTC staining to determine infarct size or TUNEL staining to detect apoptosis.

The subject of data set [2] is miRNA expression, rat heart. As to the kind of experiment: Global miRNA expression profiling (TLDA array) in ischemia-reperfused rat heart. The following applies: for miR-21 expression, up: vs basal level control heart.
Protocol: Global miRNA expression profiling in ischemia-reperfused rat heart. MicroRNA profiles were analyzed by TLDA array specific for 586 miRNA and five endogeneous control for rat.
Male Sprague-Dawley rats weighing between 250 and 300 g were fed ad libitum regular rat chow with free access to water until the start of the experimental procedure.
Micro RNA isolation and cDNA preparation. Total RNA from rat heart samples were isolated using Trizol reagent (Invitrogen) and further purified using mirVANA miRNA isolation kit (Ambion).
Profiling of miRNA expression. miRNA expression profiling were carried out using quantitative real-time PCR method by TaqManH Gene Signature Rodent Arrays on a 384 well micro fluidic card in 7900HT Realtime PCR machine (Applied Biosystem, Foster City) according to manufacturer's recommendation. Each miRNA were quantified by two specific amplicon primers and one specific probe. […] In addition, each array contains six control assays—five carefully selected candidate endogenous control assays, and one negative control assay.
Analyses of miRNA gene expression data. Realtime PCR data expressed as Ct values from array A and B were combined using R script (provided by GeneSpring Informatics Support Team) and processed using GeneSpringGX 11.0.2 software (Agilent Technologies, Santa Clara).
For another data set, the system named is cardiomyocytes. As to the kind of experiment: Cardiomyocyte apoptosis, TUNEL (Example 6). It is filed as in vivo, Sprague-Dawley rats. On the procedure: Cardiomyocyte apoptosis. Immunochemical detection of apoptotic cells was performed using the terminal deoxynucleotidyl transferase-medicated dUTP nick-end labeling (TUNEL) method. Malik et al. […] The sections were incubated with mouse monoclonal antibody recognizing cardiac myosin heavy chain to specifically detect apoptotic cardiomyocytes. The fluorescence staining was viewed with a confocal laser microscope. The number of apoptotic cells was counted and expressed as a percent of the total myocyte population. At the end of each experiment the hearts were either subjected to TTC staining to determine infarct size or TUNEL staining to detect apoptosis.

Data set [3] deals with isolated perfused rat hearts. As to the kind of experiment: Isolated working rat heart, ischemia/reperfusion, cardiac function (Example 6). It is filed as in vivo, Sprague-Dawley rats. As for the experimental part: Isolated working heart preparation. After completing the feeding protocol, the animals were anesthetized with sodium pentobarbital (80 mg/kg, intraperitoneally) (Abbott Laboratories, North Chicago, Ill., USA), and heparin sodium (500 U/kg, intravenously) (Elkins-Sinn Inc., Cherry Hill, N.J., USA) was used as an anticoagulant. After deep anesthesia, the hearts were excised, the aorta was cannulated, and the hearts were perfused through the aorta in Langendorff mode at a constant (100 cm of water) perfusion pressure at 37° C. with Krebs-Henseleit bicarbonate for a 5 min washout period as described previously. Ray et al. (1999) Free Rad Biol Med 27:160-9.
During the washout period, the left atrium was cannulated, and the Langendorff preparation was switched to the working mode for 10 min with a left atrial filling pressure of 17 cm H2O; the aortic afterload pressure was set to 100 cm of water. At the end of 10 min, the baseline cardiac function such as heart rate (HR, beats/min), aortic flow (AF, ml/min), coronary flow (CF, ml/min), left ventricular developed pressure (LVDP, mmHg) and first derivative of developed pressure (LVdp/dt, mmHg/sec) were recorded. Later, 30 min of global ischemia was initiated by clamping the left atrial inflow and aortic outflow lines at a point close to their origins. After 30 min, reperfusion was initiated for 120 min by unclamping the atrial inflow and aortic outflow lines. The first 10 min of reperfusion was in Langendorff mode to avoid ventricular fibrillation, and then the hearts were switched to an anterograde working mode. Ray et al. (1999) Free Rad Biol Med 27:160-9.
Cardiac function assessment. After 10 min of the working mode, baseline parameters were recorded. To monitor the recovery of the heart, the left ventricular cardiac function was recorded after 60 and 120 min of reperfusion. Six rats were present in each group. […] Coronary flow was measured by timed collection of the coronary effluent dripping from the heart. During the entire experiment, the aortic pressure was monitored using a Gould P23XL pressure transducer (Gould Instrument Systems Inc., Valley View, Ohio, USA) connected to the side arm of the aortic cannula; the signal was amplified using a Gould 6600 series signal conditioner (Gould Instrument Systems Inc.). […] The heart rate, left ventricular developed pressure, and the first derivative of developed pressure were all calculated from the continuously generated pressure signal.
At the end of the 21 days, the animals were sacrificed, their hearts were excised and isolated, and ischemia was induced for 30 min by terminating the coronary flow (as described in the methods section). This was then followed by 2 h of reperfusion in the working mode; during the reperfusion left ventricular function was monitored.

The next data set concerns reactive oxygen species. As to the kind of experiment: Intracellular ROS by CM-H2DCFDA fluorescence in I/R heart. It is filed as in vivo, rat. To be noted: IR heart, FIG. 19.

Protocol for reactive oxygen species: The dye was injected intravenously, prior to induction of ischemia/reperfusion, and at the end of the experiments, the level of fluorescence was determined for the generation of ROS by measuring the fluorescent oxidation product CM-DCF in the cytosol, at an excitation wavelength of 480 nm and an emission wavelength of 520 nm.

With `Oc1ccc(/C=C/c2cc(O)cc(O)c2)cc1` [resveratrol, 3,4′,5-trihydroxy-trans-stilbene], the myocardial infarct size result in data set [1] (2.5 and 25 mg/kg) is listed as “significantly reduced”; in data set [1] (above 50 mg/kg), “significant increased”. Further, the “principal component analysis of miRNA expression, IR treated samples” value in data set [2] (FIG. 15C) was “remarkably similar to BL vehicle sample”. Moreover, the figures for the “miR-21 expression, up” value in data set [2] (IR) and in data set [2] (basal level) were 61.5 fold and 391.4 fold, respectively. In data set [2] (of the 25 miRNAs of Table 11, both treatments), the “miRNAs whose up or down regulation in IR control was reversed in the opposite direction” value is listed as 11. For the same compound, the cardiomyocyte apoptosis result in the data set on cardiomyocytes (2.5 and 25 mg/kg) is listed as “significantly reduced”. The “number of apoptotic cardiomyocytes” value in the data set with cardiomyocytes (above 50 mg/kg) is given as “significant increased”. Moreover, the “aortic flow and developed pressure” value in data set [3] (100 mg/kg, gavage 21 days) was “no aortic flow or developed pressure”. The “cardioprotection (aortic flow, LVDP, maximum LVdP/dt)” value in data set [3] (2.5 and 25 mg/kg, gavage 21 days, 30 min ischemia, 2 h reperfusion) is “conferred cardioprotection”. The “ventricular function (aortic flow, LVDP, maximum LVdP/dt)” value in data set [3] (above 25 mg/kg, gavage 21 days) is recorded as “ventricular function was deteriorated”. The “hormetic action (dose-response of cardioprotection)” value in data set [3] (rat, doses up to 100 mg/kg) is “displayed hormetic action”. Besides, the “intracellular ROS concentration compared to control” value with reactive oxygen species is on record as “lowered”.
